Assay results from ChEMBL document CHEMBL4665648, “Potent and selective inhibitors of receptor-interacting protein kinase 1 that lack an aromatic back pocket group” (Bioorg Med Chem Lett, 2019).
In brackets after ≈: the same amount, converted by molar mass.

Legend:
[1] = target: Calcium/calmodulin-dependent protein kinase kinase 2 (Homo sapiens) (UniProt Q96RR4); experiment: Inhibition of tracer 236 binding to recombinant human GST-tagged full length CAMKK2 expressed in baculovirus expression system at 10 uM incubated for 60 mins by Lanthascreen assay relative to control
[2] = target: Tyrosine-protein kinase Blk (Homo sapiens) (UniProt P51451); experiment: Inhibition of recombinant human His-tagged full length BLK expressed in baculovirus expression system using Tyr 01 as substrate at 10 uM incubated for 60 mins by Z'-Lyte assay relative to control
Sequence of Tyrosine-protein kinase Blk (Homo sapiens) (P51451 2-505 limits assumed): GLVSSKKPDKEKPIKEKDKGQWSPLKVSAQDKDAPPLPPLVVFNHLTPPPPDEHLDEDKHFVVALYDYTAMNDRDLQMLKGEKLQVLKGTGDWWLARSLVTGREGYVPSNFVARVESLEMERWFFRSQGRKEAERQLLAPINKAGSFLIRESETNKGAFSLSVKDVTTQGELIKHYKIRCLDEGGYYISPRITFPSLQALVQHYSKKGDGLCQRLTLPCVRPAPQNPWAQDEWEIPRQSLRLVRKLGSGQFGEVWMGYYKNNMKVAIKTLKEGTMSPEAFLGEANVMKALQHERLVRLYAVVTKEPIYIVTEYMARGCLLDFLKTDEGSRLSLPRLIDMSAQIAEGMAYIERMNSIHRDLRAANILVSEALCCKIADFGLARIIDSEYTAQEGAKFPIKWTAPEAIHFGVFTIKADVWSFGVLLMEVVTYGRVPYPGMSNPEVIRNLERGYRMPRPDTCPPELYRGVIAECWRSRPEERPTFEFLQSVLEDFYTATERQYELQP

[3] = Kinetic solubility of compound at pH 7.4; assay type: physicochemical; conditions: buffer, read-out: Kinetic_solubility
[4] = Lipophilicity, logD of compound at pH 7.4; assay type: physicochemical; conditions: buffer
[5] = target: NUAK family SNF1-like kinase 1 (Homo sapiens) (UniProt O60285); experiment: Inhibition of recombinant human His-tagged full length ARK5 expressed in baculovirus expression system using CHKtide as substrate at 10 uM incubated for 60 mins by Adapta assay relative to control
Sequence of NUAK family SNF1-like kinase 1 (Homo sapiens) (O60285 whole entry, the tested form may be a part): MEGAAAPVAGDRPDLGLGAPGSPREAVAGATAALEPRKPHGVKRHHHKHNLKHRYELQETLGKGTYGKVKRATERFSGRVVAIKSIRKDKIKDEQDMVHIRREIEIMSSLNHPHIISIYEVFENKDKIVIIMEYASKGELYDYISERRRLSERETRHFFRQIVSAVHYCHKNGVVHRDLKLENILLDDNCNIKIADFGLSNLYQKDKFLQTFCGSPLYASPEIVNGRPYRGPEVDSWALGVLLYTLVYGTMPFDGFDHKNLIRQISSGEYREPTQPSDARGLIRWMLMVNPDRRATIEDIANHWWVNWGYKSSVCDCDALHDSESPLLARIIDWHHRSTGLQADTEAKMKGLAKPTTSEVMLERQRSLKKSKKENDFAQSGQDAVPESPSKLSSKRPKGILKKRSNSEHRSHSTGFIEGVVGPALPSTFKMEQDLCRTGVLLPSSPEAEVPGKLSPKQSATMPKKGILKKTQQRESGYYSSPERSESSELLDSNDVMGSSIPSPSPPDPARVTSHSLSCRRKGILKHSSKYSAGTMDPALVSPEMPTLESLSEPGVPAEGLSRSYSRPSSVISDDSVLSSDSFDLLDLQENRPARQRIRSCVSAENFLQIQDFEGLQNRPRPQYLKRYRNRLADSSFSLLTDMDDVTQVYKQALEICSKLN

[6] = target: Macrophage colony-stimulating factor 1 receptor (Homo sapiens) (UniProt P07333); experiment: Inhibition of recombinant human His-tagged CSF1R (538 to 910 residues) expressed in baculovirus expression system using Tyr 01 as substrate at 10 uM incubated for 60 mins by Z'-Lyte assay relative to control
[7] = target: DNA-dependent protein kinase catalytic subunit (Homo sapiens) (UniProt P78527); experiment: Inhibition of recombinant human untagged full length DNA-PK expressed in baculovirus expression system using Ser/Thr 26 as substrate at 10 uM incubated for 60 mins by Z'-Lyte assay relative to control
[8] = target: Serine/threonine-protein kinase 17A (Homo sapiens) (UniProt Q9UEE5); experiment: Inhibition of tracer 236 binding to recombinant human GST-tagged full length DRAK1 expressed in baculovirus expression system at 10 uM incubated for 60 mins by Lanthascreen assay relative to control
Sequence of Serine/threonine-protein kinase 17A (Homo sapiens) (Q9UEE5 whole entry): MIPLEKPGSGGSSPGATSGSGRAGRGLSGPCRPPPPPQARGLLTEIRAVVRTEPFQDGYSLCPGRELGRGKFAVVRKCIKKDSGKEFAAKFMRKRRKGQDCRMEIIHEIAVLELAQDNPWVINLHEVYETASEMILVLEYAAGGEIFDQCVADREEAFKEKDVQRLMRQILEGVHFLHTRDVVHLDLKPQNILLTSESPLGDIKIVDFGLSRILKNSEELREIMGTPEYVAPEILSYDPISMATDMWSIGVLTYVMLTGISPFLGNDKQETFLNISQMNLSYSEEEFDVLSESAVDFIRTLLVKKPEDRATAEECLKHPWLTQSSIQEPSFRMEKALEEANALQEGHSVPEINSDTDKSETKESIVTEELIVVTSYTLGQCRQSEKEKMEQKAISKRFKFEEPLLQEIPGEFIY

[9] = target: Tyrosine-protein kinase Fgr (Homo sapiens) (UniProt P09769); experiment: Inhibition of recombinant human C-terminal His-tagged full length FGR expressed in baculovirus expression system using Tyr 02 as substrate at 10 uM incubated for 60 mins by Z'-Lyte assay relative to control
[10] = target: Beta-adrenergic receptor kinase 1 (Homo sapiens) (UniProt P25098); experiment: Inhibition of recombinant human His-tagged full length GRK2 expressed in baculovirus expression system using Ser/Thr 16 as substrate at 10 uM incubated for 60 mins by Z'-Lyte assay relative to control
[11] = target: G protein-coupled receptor kinase 6 (Homo sapiens) (UniProt P43250); experiment: Inhibition of recombinant human GST-tagged full length GRK6 expressed in baculovirus expression system using Ser/Thr 16 as substrate at 10 uM incubated for 60 mins by Z'-Lyte assay relative to control
[12] = target: Tyrosine-protein kinase ITK/TSK (Homo sapiens) (UniProt Q08881); experiment: Inhibition of recombinant human GST-tagged full length ITK expressed in baculovirus expression system using Tyr 04 as substrate at 10 uM incubated for 60 mins by Z'-lyte assay relative to control
[13] = target: Tyrosine-protein kinase JAK1 (Homo sapiens) (UniProt P23458); experiment: Inhibition of recombinant human GST-tagged JAK1 (866 to 1154 residues) expressed in baculovirus expression system using Tyr 06 as substrate at 10 uM incubated for 60 mins by Z'-lyte assay relative to control
Sequence of Tyrosine-protein kinase JAK1 (Homo sapiens) (P23458 whole entry, the tested form may be a part): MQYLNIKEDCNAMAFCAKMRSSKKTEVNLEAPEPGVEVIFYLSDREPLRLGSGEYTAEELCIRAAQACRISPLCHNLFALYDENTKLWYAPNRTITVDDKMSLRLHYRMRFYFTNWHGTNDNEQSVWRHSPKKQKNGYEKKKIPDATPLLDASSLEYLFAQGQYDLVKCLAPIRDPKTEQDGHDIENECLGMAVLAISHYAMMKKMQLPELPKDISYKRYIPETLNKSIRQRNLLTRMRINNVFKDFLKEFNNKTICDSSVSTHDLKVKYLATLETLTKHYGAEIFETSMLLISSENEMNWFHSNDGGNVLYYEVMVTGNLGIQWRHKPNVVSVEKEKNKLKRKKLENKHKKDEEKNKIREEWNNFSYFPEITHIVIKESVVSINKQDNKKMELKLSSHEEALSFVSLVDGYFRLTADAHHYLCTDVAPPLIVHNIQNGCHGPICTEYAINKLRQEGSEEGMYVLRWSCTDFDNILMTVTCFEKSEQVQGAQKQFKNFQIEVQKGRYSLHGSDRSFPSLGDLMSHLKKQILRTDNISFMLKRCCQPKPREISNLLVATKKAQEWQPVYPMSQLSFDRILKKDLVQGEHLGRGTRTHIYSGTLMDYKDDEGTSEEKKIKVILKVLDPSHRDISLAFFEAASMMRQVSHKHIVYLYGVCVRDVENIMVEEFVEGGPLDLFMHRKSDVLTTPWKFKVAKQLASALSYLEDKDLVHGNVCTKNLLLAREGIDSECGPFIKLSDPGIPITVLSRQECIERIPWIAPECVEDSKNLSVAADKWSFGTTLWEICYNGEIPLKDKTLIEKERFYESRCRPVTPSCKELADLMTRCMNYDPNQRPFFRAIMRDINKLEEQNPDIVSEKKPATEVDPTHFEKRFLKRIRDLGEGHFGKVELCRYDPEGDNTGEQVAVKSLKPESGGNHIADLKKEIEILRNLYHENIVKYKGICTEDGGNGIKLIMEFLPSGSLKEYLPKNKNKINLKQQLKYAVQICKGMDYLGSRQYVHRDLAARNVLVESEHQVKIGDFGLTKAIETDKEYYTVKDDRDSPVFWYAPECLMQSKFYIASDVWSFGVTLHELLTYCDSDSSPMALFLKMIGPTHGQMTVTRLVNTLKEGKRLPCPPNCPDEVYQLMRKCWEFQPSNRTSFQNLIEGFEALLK

[14] = target: Mitogen-activated protein kinase 9 (Homo sapiens) (UniProt P45984); experiment: Inhibition of recombinant human His-tagged full length JNK2 expressed in baculovirus expression system using Ser/Thr 04 as substrate at 10 uM incubated for 60 mins by Z'-lyte assay relative to control
[15] = target: Tyrosine-protein kinase Lck (Homo sapiens) (UniProt P06239); experiment: Inhibition of recombinant human His-tagged full length LCK expressed in baculovirus expression system using Tyr 02 as substrate at 10 uM incubated for 60 mins by Z'-lyte assay relative to control
[16] = target: Mitogen-activated protein kinase kinase kinase 2 (Homo sapiens) (UniProt Q9Y2U5); experiment: Inhibition of tracer 236 binding to recombinant human GST-tagged full length MEKK2 expressed in baculovirus expression system at 10 uM incubated for 60 mins by Lanthascreen assay relative to control
[17] = target: Maternal embryonic leucine zipper kinase (Homo sapiens) (UniProt Q14680); experiment: Inhibition of recombinant human GST-tagged MELK (1 to 340 residues) expressed in baculovirus expression system using Ser/Thr 17 as substrate at 10 uM incubated for 60 mins by Z'-lyte assay relative to control
[18] = target: Serine/threonine-protein kinase MRCK alpha (Homo sapiens) (UniProt Q5VT25); experiment: Inhibition of recombinant human His-tagged MRCKA (1 to 473 residues) expressed in baculovirus expression system using Ser/Thr 13 as substrate at 10 uM incubated for 60 mins by Z'-lyte assay relative to control
Sequence of Serine/threonine-protein kinase MRCK alpha (Homo sapiens) (Q5VT25 whole entry, the tested form may be a part): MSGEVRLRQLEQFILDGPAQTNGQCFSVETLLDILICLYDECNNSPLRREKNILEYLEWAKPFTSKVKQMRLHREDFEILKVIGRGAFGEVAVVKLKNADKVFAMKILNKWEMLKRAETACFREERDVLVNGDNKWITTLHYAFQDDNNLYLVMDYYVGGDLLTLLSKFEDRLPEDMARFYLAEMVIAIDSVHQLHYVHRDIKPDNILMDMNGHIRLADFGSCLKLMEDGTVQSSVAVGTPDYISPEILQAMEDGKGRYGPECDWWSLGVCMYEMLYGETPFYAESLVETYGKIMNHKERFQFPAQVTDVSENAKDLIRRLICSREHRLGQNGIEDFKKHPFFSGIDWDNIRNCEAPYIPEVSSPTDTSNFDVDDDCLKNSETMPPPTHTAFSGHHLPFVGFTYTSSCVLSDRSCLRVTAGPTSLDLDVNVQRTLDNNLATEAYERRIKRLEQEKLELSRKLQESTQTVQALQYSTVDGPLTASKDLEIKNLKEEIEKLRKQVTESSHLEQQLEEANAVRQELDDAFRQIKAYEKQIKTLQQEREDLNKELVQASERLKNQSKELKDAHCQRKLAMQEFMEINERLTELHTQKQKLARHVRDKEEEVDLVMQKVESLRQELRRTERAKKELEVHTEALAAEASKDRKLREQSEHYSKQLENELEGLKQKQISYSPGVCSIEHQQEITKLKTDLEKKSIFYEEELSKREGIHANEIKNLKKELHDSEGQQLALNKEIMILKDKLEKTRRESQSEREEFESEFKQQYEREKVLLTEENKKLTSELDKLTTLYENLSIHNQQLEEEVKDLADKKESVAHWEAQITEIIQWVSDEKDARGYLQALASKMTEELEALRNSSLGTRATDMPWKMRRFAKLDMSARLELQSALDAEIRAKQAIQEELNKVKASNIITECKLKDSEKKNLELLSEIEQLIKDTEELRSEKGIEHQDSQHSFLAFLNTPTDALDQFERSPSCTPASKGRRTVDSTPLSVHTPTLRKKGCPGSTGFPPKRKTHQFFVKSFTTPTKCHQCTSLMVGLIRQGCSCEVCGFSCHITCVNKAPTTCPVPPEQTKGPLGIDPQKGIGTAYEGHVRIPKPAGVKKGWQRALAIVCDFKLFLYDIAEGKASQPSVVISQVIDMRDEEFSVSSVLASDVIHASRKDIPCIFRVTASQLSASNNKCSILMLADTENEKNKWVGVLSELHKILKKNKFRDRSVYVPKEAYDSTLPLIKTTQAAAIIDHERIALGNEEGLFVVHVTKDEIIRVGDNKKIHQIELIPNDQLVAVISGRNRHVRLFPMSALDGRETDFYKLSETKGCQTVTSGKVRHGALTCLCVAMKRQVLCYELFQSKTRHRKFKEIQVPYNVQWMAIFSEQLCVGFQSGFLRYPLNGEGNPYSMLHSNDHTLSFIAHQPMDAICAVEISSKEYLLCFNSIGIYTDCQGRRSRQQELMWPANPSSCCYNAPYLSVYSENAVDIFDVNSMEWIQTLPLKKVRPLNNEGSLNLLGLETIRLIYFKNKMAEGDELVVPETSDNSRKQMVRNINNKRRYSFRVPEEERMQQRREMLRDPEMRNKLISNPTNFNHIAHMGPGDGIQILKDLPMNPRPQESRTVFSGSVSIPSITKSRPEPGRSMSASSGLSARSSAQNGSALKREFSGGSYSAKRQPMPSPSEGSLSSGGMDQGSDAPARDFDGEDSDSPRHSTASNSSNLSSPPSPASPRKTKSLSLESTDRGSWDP

[19] = target: Tyrosine-protein kinase Mer (Homo sapiens) (UniProt Q12866); experiment: Inhibition of recombinant human GST-tagged MER (578 to 872 residues) expressed in baculovirus expression system using Tyr 02 as substrate at 10 uM incubated for 60 mins by Z'-lyte assay relative to control
[20] = target: Serine/threonine-protein kinase Nek4 (Homo sapiens) (UniProt P51957); experiment: Inhibition of recombinant human GST-tagged full length NEK4 expressed in baculovirus expression system using Ser/Thr 17 as substrate at 10 uM incubated for 60 mins by Z'-lyte assay relative to control
[21] = organism: Homo sapiens; experiment: Inhibition of recombinant human His-tagged PKA (1 to 351 residues) expressed in Escherichia coli expression system using Ser/Thr 01 as substrate at 10 uM incubated for 60 mins by Z'-lyte assay relative to control
[22] = target: Serine/threonine-protein kinase PLK1 (Homo sapiens) (UniProt P53350); experiment: Inhibition of recombinant human His-tagged full length PLK1 expressed in baculovirus expression system using Ser/Thr 16 as substrate at 10 uM incubated for 60 mins by Z'-lyte assay relative to control
[23] = target: cAMP-dependent protein kinase catalytic subunit PRKX (Homo sapiens) (UniProt P51817); experiment: Inhibition of recombinant human GST-tagged full length PRKX expressed in baculovirus expression system using Ser/Thr 01 as substrate at 10 uM incubated for 60 mins by Z'-lyte assay relative to control
[24] = target: TAK1/TAB1 (Homo sapiens) (UniProt Q15750+O43318); experiment: Inhibition of tracer 236 binding to recombinant human His-tagged full length TAK1-TAB1 expressed in baculovirus expression system at 10 uM incubated for 60 mins by Lanthascreen assay relative to control
[25] = target: Tyrosine-protein kinase Tec (Homo sapiens) (UniProt P42680); experiment: Inhibition of tracer 178 binding to recombinant human His-tagged full length TEC expressed in baculovirus expression system at 10 uM incubated for 60 mins by Lanthascreen assay relative to control
Sequence of Tyrosine-protein kinase Tec (Homo sapiens) (P42680 whole entry, the tested form may be a part): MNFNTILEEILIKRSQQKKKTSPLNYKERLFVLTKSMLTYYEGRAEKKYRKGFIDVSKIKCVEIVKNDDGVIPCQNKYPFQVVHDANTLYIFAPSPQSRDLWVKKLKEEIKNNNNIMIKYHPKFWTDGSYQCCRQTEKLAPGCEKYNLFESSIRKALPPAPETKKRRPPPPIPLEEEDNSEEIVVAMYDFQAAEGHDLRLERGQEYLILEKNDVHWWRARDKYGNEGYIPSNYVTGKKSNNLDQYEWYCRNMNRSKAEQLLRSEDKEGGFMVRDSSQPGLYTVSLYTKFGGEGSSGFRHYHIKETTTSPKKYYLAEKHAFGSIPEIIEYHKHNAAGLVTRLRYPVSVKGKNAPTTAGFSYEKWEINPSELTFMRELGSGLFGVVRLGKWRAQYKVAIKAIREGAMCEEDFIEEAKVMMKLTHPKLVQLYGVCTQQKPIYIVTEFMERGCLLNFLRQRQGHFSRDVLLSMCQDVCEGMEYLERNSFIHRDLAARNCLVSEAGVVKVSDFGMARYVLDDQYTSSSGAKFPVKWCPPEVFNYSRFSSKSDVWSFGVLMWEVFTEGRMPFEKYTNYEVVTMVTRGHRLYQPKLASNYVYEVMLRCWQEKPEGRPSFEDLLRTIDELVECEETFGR

[26] = target: Leukocyte tyrosine kinase receptor (Homo sapiens) (UniProt P29376); experiment: Inhibition of recombinant human GST-tagged LTK (450 to 864 residues) expressed in baculovirus expression system using Tyr 06 as substrate at 10 uM incubated for 60 mins by Z'-Lyte assay relative to control

CN1C(=O)[C@@H](NC(=O)c2n[nH]c3ncc(C(F)(F)C(F)(F)F)cc23)COc2ccccc21
inhibition [1]: 2% | inhibition [2]: 2% | solubility kinetic [3]: 17 µM (≈ 7.74 µg/mL) | logD [4]: 4.1 | inhibition [5]: 8.5% | inhibition [6]: 15% | inhibition [7]: 4.5% | inhibition [8]: 15.5% | inhibition [9]: 1.5% | inhibition [10]: -0.5% | inhibition [11]: -0.5% | inhibition [12]: -2% | inhibition [13]: 5% | inhibition [14]: 0.5% | inhibition [15]: -0.5% | inhibition [16]: -1% | inhibition [17]: -6% | inhibition [18]: 0% | inhibition [19]: -4% | inhibition [20]: 3.5% | inhibition [21]: -1% | inhibition [22]: 2.5% | inhibition [23]: 4.5% | inhibition [24]: 7.5% | inhibition [25]: -4.5% | inhibition [26]: 2%
